PubChem BioAssay (NCI)
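In this assay, cells in 96-well plates receive the compound at five concentrations for 48 hours. Endpoints are linearly interpolated between the surrounding concentrations. GI50 marks 50% less growth. Definition used: TGI = concentration required for complete inhibition of growth.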

How the values were obtained:
Experiment in all cases: DTP human tumour cell line panel, 48 h
CAKI-1 renal = system: CAKI-1 renal
MDA-MB-435 = system: MDA-MB-435
HCC-2998 colon = system: HCC-2998 colon
SF-539 CNS = system: SF-539 CNS
RPMI-8226 leukemia = system: RPMI-8226 leukemia
A549 NSCLC = system: A549 NSCLC
HS 578T breast = system: HS 578T breast
SK-MEL-5 melanoma = system: SK-MEL-5 melanoma
SF-295 CNS = system: SF-295 CNS
SK-MEL-28 melanoma = system: SK-MEL-28 melanoma
MALME-3M melanoma = system: MALME-3M melanoma
EKVX NSCLC = system: EKVX NSCLC
HT29 colon = system: HT29 colon
HOP-62 NSCLC = system: HOP-62 NSCLC
NCI-H460 lung = system: NCI-H460 lung
CCRF-CEM leukemia = system: CCRF-CEM leukemia
SW-620 colon = system: SW-620 colon
MCF7 breast = system: MCF7 breast
DU-145 prostate = system: DU-145 prostate
UO-31 renal = system: UO-31 renal
NCI/ADR-RES ovarian = system: NCI/ADR-RES ovarian
K-562 leukemia = system: K-562 leukemia
OVCAR-3 ovarian = system: OVCAR-3 ovarian
HCT-15 colon = system: HCT-15 colon
UACC-62 melanoma = system: UACC-62 melanoma
TK-10 renal = system: TK-10 renal
MDA-MB-231 breast = system: MDA-MB-231 breast

CN1CCN(Cc2ccc(NC(=O)c3cccc(C#Cc4cnc(N)c5ncccc45)c3F)cc2C(F)(F)F)CC1 gave a GI50 (CAKI-1 renal) of 530 nM, a TGI (CAKI-1 renal) of 6340 nM and a GI50 (MDA-MB-435) of 789 nM. The TGI (MDA-MB-435) was 1530 nM, the GI50 (HCC-2998 colon) was 834 nM and the TGI (HCC-2998 colon) was 1600 nM. It also gave a GI50 (SF-539 CNS) of 733 nM, a TGI (SF-539 CNS) of 1500 nM and a GI50 (RPMI-8226 leukemia) of 2280 nM. It also gave a TGI (RPMI-8226 leukemia) of 13200 nM, a GI50 (A549 NSCLC) of 747 nM and a TGI (A549 NSCLC) of 1580 nM. The GI50 (HS 578T breast) was 1290 nM, the TGI (HS 578T breast) was 8660 nM and the GI50 (SK-MEL-5 melanoma) was 4300 nM. For the same compound, the TGI (SK-MEL-5 melanoma) was 12100 nM, the GI50 (SF-295 CNS) was 7060 nM and the TGI (SF-295 CNS) was 14700 nM. For the same compound, the GI50 (SK-MEL-28 melanoma) was 848 nM, the TGI (SK-MEL-28 melanoma) was 1590 nM and the GI50 (MALME-3M melanoma) was 675 nM. It also gave a TGI (MALME-3M melanoma) of 1400 nM, a GI50 (EKVX NSCLC) of 6570 nM and a TGI (EKVX NSCLC) of 13700 nM. The GI50 (HT29 colon) was 677 nM, the TGI (HT29 colon) was 1530 nM and the GI50 (HOP-62 NSCLC) was 1740 nM. The TGI (HOP-62 NSCLC) was 8710 nM, the GI50 (NCI-H460 lung) was 561 nM and the TGI (NCI-H460 lung) was 1370 nM. For the same compound, the GI50 (CCRF-CEM leukemia) was 1010 nM, the TGI (CCRF-CEM leukemia) was 3670 nM and the GI50 (SW-620 colon) was 620 nM. For the same compound, the TGI (SW-620 colon) was 1710 nM, the GI50 (MCF7 breast) was 793 nM and the TGI (MCF7 breast) was 1720 nM. It also gave a GI50 (DU-145 prostate) of 614 nM, a TGI (DU-145 prostate) of 1410 nM and a GI50 (UO-31 renal) of 849 nM. For the same compound, the TGI (UO-31 renal) was 1540 nM, the GI50 (NCI/ADR-RES ovarian) was 1600 nM and the TGI (NCI/ADR-RES ovarian) was 5180 nM. The GI50 (K-562 leukemia) was 5 nM, the TGI (K-562 leukemia) was 733 nM and the GI50 (OVCAR-3 ovarian) was 5070 nM. For the same compound, the TGI (OVCAR-3 ovarian) was 12000 nM, the GI50 (HCT-15 colon) was 546 nM and the TGI (HCT-15 colon) was 1350 nM. For the same compound, the GI50 (UACC-62 melanoma) was 2840 nM, the TGI (UACC-62 melanoma) was 13100 nM and the GI50 (TK-10 renal) was 5670 nM. It also gave a TGI (TK-10 renal) of 12900 nM, a GI50 (MDA-MB-231 breast) of 773 nM and a TGI (MDA-MB-231 breast) of 1750 nM.
